The values that follow come from patent US20030144194A1, “Cancer treatment and prognosis” (priority 2000, published 2003).

One test deals with CMV promoter. The note with it: L. D. Dion et al., Virology 231 (1997); cited from earlier work.
The test system of test [1] is HES-1. Briefly: Western blot of HES-1 protein in nuclear extracts of breast cancer cell lines. Type of test: cell-based. The note with it: for effect on 17β-estradiol-mediated down regulation of HES-1 protein: antiestrogen together with 17β-estradiol, FIG. 1C. The protocol:
FIG. 1(B) Regulation of HES-1 by 17β-estradiol in breast cancer cell lines; 50 μg of nuclear extract protein was used;
(§1) T47D cells were cultured in a 1:1 mixture of Hams F 12 and DME with 10% fetal bovine serum, MCF-7, MDA-MB-231 and COS-7 cells were cultured in DME with 10% fetal bovine serum. Before experiments with estrogen, the media were switched and phenol red free and DCC charcoal treated with serum were used. Culture conditions were set at 37° C., 5% CO2 and 100% humidity. For creation of tetracycline inducible stably transfected clones the tet-regulated expression system from Bibco BRL was used. A puromycin resistance gene was cloned into pTet TAk. T47D cells were then transfected with lipofectin (GibcoBRL) according to the manufacturer's instructions. Transfectants were selected with puromycin at 1 μg/ml. […] Transfectants were selected using G418 (Calbiochem) at 500 μg/ml. Cells lines stably transfected with tetracycline regulated expression constructs were grown in the presence of 1 μg/ml of tetracycline. At the time of induction the medium was removed and the cells were washed with PBS two times before adding new medium without tetracycline.
Nuclear extract and RNA preparation was carried out according to the protocol by Schreiber et al (E. Schreiber, et al., Nucleic Acids Res 17, 6419 (1989)) except that PBS was used instead of TBS and the following inhibitors were added: leupeptin at 1 μg/ml, PMSF at 0.2 mM, […] Na3VO4, 1 mM NaPPi, 1 mM NaF, 100 μM Na2MO4 (all from Sigma). Nuclear extracts were prepared from cells grown to a confluency of 60%-70% on a 150 mm culture dish. Protein content was determined by Bradford assay (BioRad).
(§2) Two peptides with identical sequence parts of HES-1 protein were synthesised and simultaneously injected into one rabbit (Genosys). The peptides were […] […] and […]. For Western blots, 100 μg of nuclear extract was separated on a 12% SDS-PAGE. Western blot analysis was performed according to standard protocols (Harlow and Lane, E. Harlow, and D. Lane, Cold Spring Harbour Laboratory Press, Cold Spring Harbour, N.Y., (1988)). HES-1 antibody was used at a dilution of 1:1000. The PCNA (C-10) antibody was from Santa Cruz and used at 1:1000. Donkey, anti-rabbit and sheep anti-mouse IgG HRP conjugated antibody (Amersham) were used at 1:10000. Antibody binding was visualised using ECL, Super Signal (Pierce).

Test [2] addresses T1, estrogen receptor α (ERα) (Homo sapiens, UniProt P03372).
T1 construct: FLAG; expressed in transfected cells; host or cells: COS-7
T1 sequence (P03372 1-595): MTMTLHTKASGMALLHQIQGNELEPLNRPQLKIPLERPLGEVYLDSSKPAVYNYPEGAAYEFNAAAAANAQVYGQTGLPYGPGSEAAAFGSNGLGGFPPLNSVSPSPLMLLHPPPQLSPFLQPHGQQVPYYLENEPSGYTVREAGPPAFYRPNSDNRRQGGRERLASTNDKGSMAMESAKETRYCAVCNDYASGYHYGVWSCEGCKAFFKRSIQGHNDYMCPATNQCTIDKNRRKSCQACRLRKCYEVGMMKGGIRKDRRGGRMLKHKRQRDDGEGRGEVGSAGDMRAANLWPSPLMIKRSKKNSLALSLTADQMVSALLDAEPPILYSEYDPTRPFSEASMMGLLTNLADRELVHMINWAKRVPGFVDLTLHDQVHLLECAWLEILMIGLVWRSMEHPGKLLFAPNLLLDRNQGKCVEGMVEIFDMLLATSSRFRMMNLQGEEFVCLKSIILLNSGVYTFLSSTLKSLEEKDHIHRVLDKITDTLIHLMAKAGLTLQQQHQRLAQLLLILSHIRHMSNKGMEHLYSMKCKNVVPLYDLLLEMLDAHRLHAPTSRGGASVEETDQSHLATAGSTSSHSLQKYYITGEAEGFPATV
Briefly: ERE TATA LUC reporter in COS-7 cells transfected with ERα. Type of test: cell-based. The protocol:
FIG. 5. Transfection of COS-7 cells with 3X ERE TATA LUC 1 μg and 100 ng of pcDNA3 FLAG ERα.
FIG. 8. Transient transfection of COS-7 cells using the ERE reporter vector ERE TATA LUC and expression vectors FLAG ERα and FLAG HES-1 and treated with E2 and the histone deacetylase inhibitor Trichostatin A (TSA).
Human ERα was epitope tagged with the artificial “FLAG” epitope using PCR cloning. The VP16 activation domain was fused to the N-tenninus of rat HES-1.

The next test concerns the target T2, ERβ (Homo sapiens, UniProt Q92731).
T2 construct: FLAG; expressed in transfected cells; host or cells: COS-7
Briefly: ERE TATA LUC reporter in COS-7 cells transfected with ERβ. The note with it: FIG. 9. It counts as cell-based. From the text:
FIG. 9. Transient transfection of COS-7 cells using the ERE reporter vector ERE TATA LUC and expression vectors FLAG […] and FLAG HES-1 and treated with E2 and the histone deacetylase inhibitor Tricostatin A (TSA).

Test [3] deals with HES-1. As to the kind of experiment: All-trans retinoic acid effect on 17β-estradiol-dependent down regulation of HES-1 expression in MCF-7 cells (Western blot). Type of test: cell-based. The settings on record: 1 μM all-trans retinoic acid, 17β estradiol 0.1 and 1 nM, 3 days. The protocol:
MCF-7 cells were grown on 150 mm plates to 70% confluency in DME medium supplemented with 10% FBS. The medium was then changed to phenolAred free DME supplemented with DCC treated FBS to which 17β estradiol 0.1 and 1 nM respectively and 1 μM of all-trans retinoic acid was added individually or in combination. The plates were then incubated for 3 days in a humidified incubator at 37° C. and 5% CO2. Nuclear extract was produced according to Schreiber et al (E. Schreiber et al (1989) Nucleic Acids Res 17: 6419). 50 μg of this nuclear extract was then run on SDS-PAGE and blotted over to nitrocellulose membrane Hybond C super (Amersham). HES-1 protein was then detected using HES-1 antibody.

The subject of test [4] is proliferating cell nuclear antigen (PCNA). Briefly: PCNA Western blot on nuclear extracts of tet-regulated FLAG HES-1 T47D cells. Type of test: cell-based. The protocol: (§3) FIG. 2 illustrates a proliferation assay T47D cells stably transfected with tetracycline regulated FLAG HES-1 expression. (A) Relative proliferation of two different clones HES-1(1) and HES-1(2) with inducible FLAG HES-1 expression, and two control clones. Tetracycline at 1 μg/ml and 17β-estradiol at 10 nM were used when stated. Data represents an average of six independent measurements. (B) Western blot of endogenous HES-1 and FLAG HES-1 expression in HES-1(1) and HES-1(2) cell lines with antibody against HES-1. PCNA Western blot on same extracts 50 μg of nuclear protein was used;
as §2
Background: Immunoblotting shows a protein as a band on a membrane.

The next test concerns histone acetylation. The settings on record: MCF-7 breast cancer cells, Pasqualini et al (1989); cited from earlier work.
The subject of a further test is T47D breast cancer cells. As to the kind of experiment: Proliferation assay, T47D cells stably transfected with tetracycline regulated FLAG HES-1 expression. It counts as cell-based. The protocol: as §3, §1
A proliferation determination kit from BioThema (A. Lundin, Methods Enzymol 305, 346-370 (1999)). The kit is based on measuring ATP and since the ATP level is constant between cells this can be used to evaluate the number of cells. The cells were grown on 24 well plates at 1000 cells/well. Treatment with hormone was in phenol red-free medium supplemented with 10% DCC treated fetal calf serum. […] Luciferase activity was measured using a Berthold luminometer.

T2 sequence (Q92731 whole entry, species assumed): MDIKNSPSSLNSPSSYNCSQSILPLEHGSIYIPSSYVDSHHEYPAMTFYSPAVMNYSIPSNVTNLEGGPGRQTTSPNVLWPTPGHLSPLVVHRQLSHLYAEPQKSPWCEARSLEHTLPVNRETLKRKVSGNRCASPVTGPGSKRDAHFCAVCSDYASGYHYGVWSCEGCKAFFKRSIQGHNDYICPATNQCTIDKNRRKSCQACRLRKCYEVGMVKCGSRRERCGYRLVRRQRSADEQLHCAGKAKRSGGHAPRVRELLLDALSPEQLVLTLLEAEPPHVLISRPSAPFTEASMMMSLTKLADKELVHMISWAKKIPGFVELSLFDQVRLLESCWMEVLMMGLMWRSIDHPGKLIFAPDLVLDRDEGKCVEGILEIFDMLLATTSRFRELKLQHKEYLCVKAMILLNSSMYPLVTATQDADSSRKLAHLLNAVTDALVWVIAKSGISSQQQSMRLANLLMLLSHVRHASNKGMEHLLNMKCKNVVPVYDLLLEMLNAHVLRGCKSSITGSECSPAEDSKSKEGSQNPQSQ

Take `CCCC(=O)O.COc1cccc(C#CCON=C2CN3CCC2C3)c1` (stereo not drawn) [n-butyrate]: the CMV promoter activity entry with CMV promoter is recorded as “induce”.
For the compound `CC/C(=C(\c1ccc(O)cc1)c1ccc(OCCN(C)C)cc1)c1ccccc1` [4OH tamoxifen], in the test on HES-1 [1], the “effect on 17β-estradiol-mediated down regulation of HES-1 protein” value (“effect … of HES-1 protein” for short) was “prevented”.
As to `CC(/C=C/C(=O)NO)=C\[C@@H](C)C(=O)c1ccc(N(C)C)cc1` [trichostatin A], the CMV promoter activity entry with CMV promoter is “induce”. Moreover, in test [2] (COS-7 cells treated with 5 ng/ml trichostatin A for 8 hrs), the “makes 4OH tamoxifen into an effective agonist on ERE TATA LUC” value is on record as “same result”. The “17β-estradiol response on addition of TSA together with HES-1” value in test [2] (COS-7 cells, ERα, FIG. 8) is “much larger response”. Also, the “17β-estradiol response on addition of TSA in combination with HES-1” value on ERβ is “no significant difference”.
Take `CC1=C(/C=C/C(C)=C/C=C/C(C)=C/C(=O)O)C(C)(C)CCC1` [all-trans retinoic acid]: in the test on HES-1 [3], the “effect on 17β-estradiol-dependent down regulation of HES-1 expression” value is “inhibits”.
`C[C@]12CC[C@@H]3c4ccc(O)cc4C[C@@H](CCCCCCCCC[S+]([O-])CCCC(F)(F)C(F)(F)F)[C@H]3[C@@H]1CC[C@@H]2O` (stereo partly drawn) [ICI 182,780]: the “effect … of HES-1 protein” value in the test on HES-1 [1] was “prevented”.
As for `C[C@]12CC[C@@H]3c4ccc(O)cc4CC[C@H]3[C@@H]1CC[C@@H]2O` [17β-estradiol], the “regulation of proliferation marker PCNA” value in test [4] (absence of exogenous FLAG-HES-1 expression) is “upregulated twofold”; in test [4] (presence of exogenous FLAG-HES-1), “no regulation”. Moreover, the “expressed protein levels of HES-1” value with HES-1 [1] (MCF-7 breast cancer cells) and in the test with HES-1 [1] (T47D breast cancer cells) was “suppress” throughout. Further, the “17β-estradiol-mediated suppression of HES-1” value with HES-1 [1] (MDA-MB-231 breast cancer cells (lack ERα)) is “lack of 17β-estradiol-mediated suppression”. The histone acetylation entry with histone acetylation is listed as “decreases”. The stimulation of proliferation entry in the test on T47D breast cancer cells (absence of tetracycline (with induced HES-1 expression), 17β-estradiol 10 nM) is given as “no 17β-estradiol stimulated proliferation”; in the test with T47D breast cancer cells (presence of tetracycline (without induced HES-1 expression), 17β-estradiol 10 nM) it was “two-fold stimulation”; in the test with T47D breast cancer cells (two control cell lines with tetracycline-regulated vector lacking FLAG-HES-1), “exhibited 17β-estradiol-stimulated proliferation”.
Consider `O=C(c1ccc(OCN2CCCCC2)cc1)c1c(-c2ccc(O)cc2)sc2cc(O)ccc12` [raloxifen], for which the “effect … of HES-1 protein” value with HES-1 [1] is “prevented”.
